According to patent publication US10925857B2, “Rational drug design targeting resistant gram-negative bacterial infections to polymyxin-class antibiotics” (The Trustees of Columbia University in the City of New York, priority 2015, dated 2021):

Key:
[1] = system: E. coli BL21 strain; test: Control polymyxin growth assay, BL21 strain; type: cell-based, Escherichia coli; conditions: E. coli BL21, endogenous E. coli ArnT gene
Text: (§1) E. coli BL21 strain is used to test efficacy of tested compounds towards the E. coli ArnT protein. […] Gi24 is E. coli BL21 ΔArnT that has been transformed with the plasmid pGi24 that expresses the wt Salmonella typhimurium ArnT. […] The Gi24 strain is used to test efficacy of tested compounds towards the Salmonella typhimurium ArnT protein.
(§2) Three strains were used for the implementation of the polymyxin B growth assay for compound screening in a 96-well plate format: (1) BL21 (DE3) E. coli strain (referred to as BL21). […] E. coli BL21 strain is used to test efficacy of tested compounds towards the E. coli ArnT protein. (2) E. coli BL21(DE3) ΔArnT the endogenous E. coli ArnT gene has been deleted, thus rendering the E. coli BL21 ΔArnT strain sensitive to polymyxin B (referred to as ΔArnT). (3) E. coli BL21(DE3) ΔArnT that has been transformed with the plasmid pGi24 that expresses the wt Salmonella typhimurium ArnT (referred to as Gi24). […]
(§3) Overnight cultures of the three strains were used to inoculate LB media containing 100 μg/ml Ampicillin alone (PMXB−) or 100 μg/ml and 3 μg/ml Polymyxin B (PMXB+) at 1:2000 dilution, as appropriate. […] The 96-well plate was transferred to an Epoch 2 microplate reader (Biotek) and shaken continuously at 37° C. Growth was continuously quantitated spectrophotometrically at 600 nm. […]

[2] = system: E. coli BL21 ΔArnT strain; test: Control polymyxin growth assay, BL21 ΔArnT strain; type: cell-based, Escherichia coli; conditions: endogenous ArnT gene deleted
Text: as §1, §2, §3

[3] = system: Gi24 strain (E. coli BL21 ΔArnT expressing wt Salmonella typhimurium ArnT); test: Control polymyxin growth assay, Gi24 strain; type: cell-based, Escherichia coli; conditions: Gi24: BL21 ΔArnT with plasmid pGi24 expressing wt S. typhimurium ArnT
Text: as §1, §2, §3

[4] = target: T1, E. coli ArnT (Escherichia coli, UniProt P76473); test: Polymyxin B growth assay for compound screening, BL21 strain; type: cell-based; conditions: E. coli BL21 strain carrying E. coli ArnT; compound 0.5 mM; 3 μg/ml Polymyxin B; OD 600 nm
T1 construct: it carries the endogenous E. coli ArnT gene; endogenous in cells; host or cells: E. coli BL21(DE3)
T1 sequence (P76473 whole entry): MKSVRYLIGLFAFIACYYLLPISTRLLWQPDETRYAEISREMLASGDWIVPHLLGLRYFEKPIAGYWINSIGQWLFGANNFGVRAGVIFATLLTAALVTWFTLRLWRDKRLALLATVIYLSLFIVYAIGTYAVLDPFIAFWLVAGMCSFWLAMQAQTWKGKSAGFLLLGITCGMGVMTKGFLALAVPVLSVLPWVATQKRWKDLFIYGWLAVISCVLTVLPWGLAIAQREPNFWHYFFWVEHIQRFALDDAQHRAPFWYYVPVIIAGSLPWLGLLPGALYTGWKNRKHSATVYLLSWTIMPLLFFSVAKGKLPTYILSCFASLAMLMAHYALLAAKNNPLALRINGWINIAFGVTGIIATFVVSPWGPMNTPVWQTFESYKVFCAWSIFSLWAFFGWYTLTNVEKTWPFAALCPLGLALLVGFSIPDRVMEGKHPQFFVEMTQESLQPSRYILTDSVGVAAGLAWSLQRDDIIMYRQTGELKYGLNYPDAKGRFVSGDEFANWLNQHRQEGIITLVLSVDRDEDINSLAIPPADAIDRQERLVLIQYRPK
Text: (§4) FIGS. 8A-J show graphic results of the polymyxin growth assay for the five Class I compounds obtained in target-based virtual screening. In this and all subsequent figures showing results of compound testing in the polymyxin growth assay, four curves are shown, (i) growth of test strain (BL21 for targeting E. coli ArnT or Gi24 for targeting S. typhimurium ArnT) in the absence of PMXB (−PMXB, represented by an open circle), (ii) growth of test strain in the presence of PMXB (+PMXB, represented by an open square), (iii) growth of test strain in the absence of PMXB and in the presence of test compound (−PMXB+Cmpd, represented by open diamond), and (iv) growth of test strain in the presence of PMXB and test compound (+PMXB+Cmpd, represented by an […]). Each point in the curves represents the mean of six measurements of absorbance (OD) at 600 nm (triplicate samples from two independent experiments). Standard deviation is not shown, but typically ranged from 0.001 to 0.1. Growth of E. coli BL21 strain (carrying the E. coli ArnT) was measured in the presence of Class I compounds 20, 14, 15, 19, or U2 (FIGS. 8A, 8C, SE, 8G and 8I, respectively). Growth of E. coli Gi24 strain (carrying the S. typhimurium ArnT) was measured in the presence of Class I compounds 20, 14, 15, 19, or U2 (FIGS. 8B, 8D, 8F, 8H and 8J, respectively). […]

[5] = target: T2, Salmonella typhimurium ArnT (Salmonella typhimurium, UniProt O52327); test: Polymyxin B growth assay for compound screening, Gi24 strain; type: cell-based; conditions: E. coli Gi24 strain carrying S. typhimurium ArnT; compound 0.5 mM; 3 μg/ml Polymyxin B; OD 600 nm
T2 construct: expressed in transfected cells; host or cells: E. coli BL21(DE3) ΔArnT transformed with plasmid pGi24 (strain Gi24)
Text: as §4

polymyxin B
growth of strain in the presence of PMXB [1]: inherently resistant | growth of strain in the presence of PMXB [2]: absence of growth | growth of strain in the presence of PMXB [3]: growth of Gi24 strain in the presence of PMXB

Cc1[nH]nc(O)c1C(c1ccc(Cl)cc1)c1c(O)n[nH]c1C [Compound 20, 4-[(4-chlorophenyl)-(3-methyl-5-oxo-1,2-dihydropyrazol-4-yl)methyl]-5-methyl-1,2-dihydropyrazol-3-one]
ArnT inhibiting activity (retardation of growth of polymyxin resistant strain in the presence of PMXB) [4]: especially strong ArnT inhibiting activity | ArnT inhibiting activity (retardation of growth of polymyxin resistant strain in the presence of PMXB) [5]: especially strong ArnT inhibiting activity
